# Measurements: ChEMBL document CHEMBL1148856, “Thiazolone-acylsulfonamides as novel HCV NS5B polymerase allosteric inhibitors: convergence of structure-based drug design and X-ray crystallographic study” (Bioorg Med Chem Lett, 2007)
# Assay: Inhibition of HCV BK NS5B polymerase
# Parameters: species or system Hepacivirus hominis
row,SMILES,IC50 [µM]
1,CCc1ccc(/C=C2\SC(N[C@H](C(=O)NS(=O)(=O)c3cccc(C(=O)O)c3)c3ccc(F)cc3)=NC2=O)o1 (stereo in doubt),12
2,CCc1ccc(/C=C2\SC(N[C@H](C(=O)NS(=O)(=O)c3cccc([N+](=O)[O-])c3)c3ccc(F)cc3)=NC2=O)o1 (stereo in doubt),15
3,CCc1ccc(/C=C2\SC(N[C@H](C(=O)NS(=O)(=O)c3cccc(C(=O)OC)c3)c3ccc(F)cc3)=NC2=O)o1 (stereo in doubt),14

# More lines, in order of falling IC50, values ahead:
row,IC50 [µM],SMILES
1,16,CCc1ccc(/C=C2\SC(N[C@H](CS(=O)(=O)NC(=O)c3ccccc3)c3ccccc3)=NC2=O)o1 (stereo in doubt)
2,9.3,CCc1ccc(/C=C2\SC(N[C@H](C(=O)NS(=O)(=O)c3ccc(C)cc3)c3ccc(F)cc3)=NC2=O)o1 (stereo in doubt)
3,6.6,CCc1ccc(/C=C2\SC(N[C@H](C(=O)NS(=O)(=O)c3ccc([N+](=O)[O-])cc3)c3ccc(Cl)cc3Cl)=NC2=O)o1 (stereo in doubt)
